Data set [1] addresses T1, ATP-dependent translocase ABCB1 (Homo sapiens, UniProt P08183). The data set can be described thus: TP_TRANSPORTER: increase in Vinblastine transepithelial transpot (apical to basal)(Vinblastine: 0.01 uM, Naringenin: 855 uM) in Caco-2 cells. To be noted: caco-2, 855 µM. The class given is functional, cell-based.
Data set [2] addresses T1, ATP-dependent translocase ABCB1. Briefly: TP_TRANSPORTER: increase in Vinblastine transepithelial transpot (apical to basal) (Vinblastine: 0.01 uM, GFJ: 50 %) in Caco-2 cells. The class given is functional, cell-based.

T1 sequence (P08183 whole entry): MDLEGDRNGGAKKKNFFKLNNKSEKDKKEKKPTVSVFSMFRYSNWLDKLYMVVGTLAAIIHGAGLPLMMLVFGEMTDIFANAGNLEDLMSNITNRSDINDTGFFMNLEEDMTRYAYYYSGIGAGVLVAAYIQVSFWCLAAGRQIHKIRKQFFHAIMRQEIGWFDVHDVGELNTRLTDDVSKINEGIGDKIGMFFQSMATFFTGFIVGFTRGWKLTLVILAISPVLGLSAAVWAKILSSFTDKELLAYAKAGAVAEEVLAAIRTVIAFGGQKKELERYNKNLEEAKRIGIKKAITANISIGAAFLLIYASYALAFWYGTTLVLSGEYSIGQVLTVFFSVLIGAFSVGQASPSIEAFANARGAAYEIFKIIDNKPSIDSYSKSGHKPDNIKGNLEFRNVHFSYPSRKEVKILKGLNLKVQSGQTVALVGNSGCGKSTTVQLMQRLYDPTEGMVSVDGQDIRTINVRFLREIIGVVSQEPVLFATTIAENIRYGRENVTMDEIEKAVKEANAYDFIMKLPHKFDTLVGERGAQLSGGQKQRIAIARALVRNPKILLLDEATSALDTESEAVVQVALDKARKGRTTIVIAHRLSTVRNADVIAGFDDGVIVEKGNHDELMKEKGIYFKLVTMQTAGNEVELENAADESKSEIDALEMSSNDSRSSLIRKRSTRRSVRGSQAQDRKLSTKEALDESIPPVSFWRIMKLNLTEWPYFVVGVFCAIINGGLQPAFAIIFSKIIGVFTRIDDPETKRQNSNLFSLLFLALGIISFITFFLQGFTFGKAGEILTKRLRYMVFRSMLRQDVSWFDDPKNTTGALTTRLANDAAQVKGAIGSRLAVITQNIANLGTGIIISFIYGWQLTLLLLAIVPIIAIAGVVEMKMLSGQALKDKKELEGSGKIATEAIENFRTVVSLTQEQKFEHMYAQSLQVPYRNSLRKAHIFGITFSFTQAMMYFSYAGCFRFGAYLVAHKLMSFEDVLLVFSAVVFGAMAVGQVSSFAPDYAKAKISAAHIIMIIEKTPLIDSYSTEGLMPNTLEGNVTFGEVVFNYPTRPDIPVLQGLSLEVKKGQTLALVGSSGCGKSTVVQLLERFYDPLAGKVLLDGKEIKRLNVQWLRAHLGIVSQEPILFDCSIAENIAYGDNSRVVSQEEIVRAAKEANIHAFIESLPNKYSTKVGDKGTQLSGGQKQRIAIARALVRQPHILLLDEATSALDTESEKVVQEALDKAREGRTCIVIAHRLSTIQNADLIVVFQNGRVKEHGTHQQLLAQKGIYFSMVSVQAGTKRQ

Regarding `O=C1C[C@@H](c2ccc(O)cc2)Oc2cc(O)cc(O)c21` [NARINGENIN], the Activity in data set [1] is 240%.

In data set [2], GRAPEFRUIT JUICE displayed an Activity of 240%.

The values above are taken from ChEMBL document CHEMBL2074298, “Inhibition of vinblastine efflux mediated by P-glycoprotein by grapefruit juice components in caco-2 cells” (Biol Pharm Bull, 1998).
